From patent US20070066628A1 (Wyeth, priority 2005, published 2007)
Where “and” joins values, the source holds several entries; their conditions need not be identical. Identical values can stand only once.

Experiments:
PR = target: T1, PR (Homo sapiens, UniProt P06401); experiment: T47D cell alkaline phosphatase assay; format: cell-based; settings: T47D cells, agonist mode; read-out: Alk. Phos. EC50
T1 construct: Frozen T47D cells were thawed in a 37° C. water bath and diluted to 280,000 cells/mL in culture medium; endogenous in cells; host or cells: T47D cells
T1 sequence (P06401 1-933): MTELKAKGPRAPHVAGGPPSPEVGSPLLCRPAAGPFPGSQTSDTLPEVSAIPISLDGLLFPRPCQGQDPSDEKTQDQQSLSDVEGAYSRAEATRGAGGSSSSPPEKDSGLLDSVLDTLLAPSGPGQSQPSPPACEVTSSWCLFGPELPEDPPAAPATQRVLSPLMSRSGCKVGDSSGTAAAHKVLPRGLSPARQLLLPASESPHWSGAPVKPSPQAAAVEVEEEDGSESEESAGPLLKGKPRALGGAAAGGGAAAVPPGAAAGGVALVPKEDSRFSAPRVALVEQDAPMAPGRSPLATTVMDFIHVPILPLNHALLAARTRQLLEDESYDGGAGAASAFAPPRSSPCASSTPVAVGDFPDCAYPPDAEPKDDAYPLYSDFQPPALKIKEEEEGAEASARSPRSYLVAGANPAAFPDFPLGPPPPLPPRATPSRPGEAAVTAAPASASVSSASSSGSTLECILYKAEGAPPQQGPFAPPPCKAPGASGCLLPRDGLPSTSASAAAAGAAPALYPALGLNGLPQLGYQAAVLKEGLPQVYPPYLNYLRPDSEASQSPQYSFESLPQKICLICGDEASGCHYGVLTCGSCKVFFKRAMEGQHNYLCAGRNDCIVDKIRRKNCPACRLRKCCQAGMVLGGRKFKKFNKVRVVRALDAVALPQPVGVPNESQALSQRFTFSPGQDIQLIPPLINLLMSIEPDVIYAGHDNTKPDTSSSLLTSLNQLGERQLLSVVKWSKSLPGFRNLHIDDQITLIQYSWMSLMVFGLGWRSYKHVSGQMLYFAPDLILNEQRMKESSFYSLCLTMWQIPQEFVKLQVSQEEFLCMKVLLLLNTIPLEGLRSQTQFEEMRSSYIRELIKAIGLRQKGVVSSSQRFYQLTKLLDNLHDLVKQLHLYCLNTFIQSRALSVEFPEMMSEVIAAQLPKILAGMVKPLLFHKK
Protocol: (4) T47D Cell Alkaline Phosphatase Assay
(a) Purpose: To identify progestins or antiprogestins by determining a compound's effect on alkaline phosphatase activity in T47D cells.
(b) Methods: • A. Reagents • (i) Culture medium: DMEM:F12 (1:1) (GIBCO, BRL) supplemented with 5% (v/v) charcoal stripped fetal bovine serum (not heat-inactivated), 100 U/mL penicillin, […] streptomycin, and 2 mM GlutaMax (GIBCO, BRL). • (ii) Alkaline Phosphatase Assay Buffer • I. 0.1 M Tris-HCl, pH 9.8, containing 0.2% the Triton™ X-100 reagent • II. 0.1 M Tris-HCl, pH 9.8 containing 4 mM p-nitrophenyl phosphate (Sigma). • B. Cell Culture and Treatment • Frozen T47D cells were thawed in a 37° C. water bath and diluted to 280,000 cells/mL in culture medium. To each well in a 96-well plate (Falcon, Becton Dickinson Labware), 180 μL of diluted cell suspension was added. Twenty μL of reference or test compounds diluted in the culture medium was then added to each well. […] The cells were incubated at 37° C. in a 5% CO2/humidified atmosphere for 24 hours. • Note: For high throughput screening, one concentration of each compound was tested at 0.3 mg/mL. […]
Square root-transformed data were used for analysis of variance and nonlinear dose response curve fitting for both agonist and antagonist modes. […] EC50 or IC50 values were calculated from the retransformed values. […]

[1] = system: rat uterine decidualization; experiment: Rat decidualization assay; settings: s.c.; for Estimated EC50 for uterine weight (decidual response): ovariectomized female Sprague-Dawley rats, once daily for seven days, individual studies; for Estimated average EC50 for uterine weight (decidual response): ovariectomized rats, average of dose-response curves
Protocol: (2) Rat Decidualization Assay
(a) Objective: This procedure is used to evaluate the effect of progestins and antiprogestins on rat uterine decidualization and compares the relative potencies of various test compounds.
(b) Methods • A. Reagents • Test compounds are dissolved in 100% ethanol and mixed with corn oil (vehicle). Stock solutions of the test compounds in oil (the Mazola™ oil) are then prepared by heating (˜80° C.) the mixture to evaporate ethanol. Test compounds are subsequently diluted with 100% corn oil or 10% ethanol in corn oil prior to the treatment of animals. […] Ovariectomy is performed at least 10 days prior to treatment to reduce circulating sex steroids. Animals are housed under 12 hours light/dark cycle and given standard rat chow and water ad libitum. • C. […] Test compounds in 0.2 mL vehicle are administered by subcutaneous injection in the nape of the neck or by gavage using 0.5 mL. The animals are treated once daily for seven days. […] In all studies, a control group receiving vehicle is included. Determination of dose-response curves is carried out using doses with half log increases (e.g. 0.1, 0.3, 1.0, 3.0 mg/kg). • E. Decidual Induction • Approximately 24 hours after the third injection, decidualization is induced in one of the uterine horns by scratching the antimesometrial luminal epithelium with a blunt 21 G needle. The contralateral horn is not scratched and serves as an unstimulated control. Approximately 24 hours following the final treatment, rats are sacrificed by CO2 asphyxiation and body weight measured. Uteri are removed and trimmed of fat. […] The Huber M-estimator is used to down weight the outlying transformed observations for both dose-response curve fitting and one-way analysis of variance. JMP software (SAS Institute, Inc.) is used for both one-way ANOVA and non-linear dose-response analyses. • G. Reference Compounds:
All progestin reference compounds are run in full dose-response curves and the EC50 for uterine wet weight is calculated.

Compound	EC50 (PR)	Estimated EC50 for uterine weight (decidual response) [1]	Estimated average EC50 for uterine weight (decidual response) [1]
Cn1c(C#N)ccc1-c1ccc2c(c1)C(C)(C)CC2O (stereo not shown) [Example 3, 5-(1-hydroxy-3,3-dimethyl-2,3-dihydro-1H-inden-5-yl)-1-methyl-1H-pyrrole-2-carbonitrile]	18.6 nM		
CC(=O)[C@H]1CC[C@H]2[C@@H]3CCC4=CC(=O)CC[C@]4(C)[C@H]3CC[C@]12C [Progesterone]		5.50 mg/kg, s.c.	5.62 mg/kg, s.c.
C#C[C@]1(O)CC[C@H]2[C@@H]3CCC4=CC(=O)CC[C@@H]4[C@H]3CC[C@@]21CC [Levonorgestrel]		0.08 mg/kg, s.c. and 0.12 mg/kg, s.c. and 0.09 mg/kg, s.c. (2×)	0.10 mg/kg, s.c.
C#C[C@]1(O)CC[C@H]2[C@@H]3CCC4=CC(=O)CC[C@@H]4[C@H]3C(=C)C[C@@]21CC [3-Ketodesogestrel]			0.10 mg/kg, s.c.
CC(=O)O[C@]1(C(C)=O)CC[C@H]2[C@@H]3C[C@H](C)C4=CC(=O)CC[C@]4(C)[C@H]3CC[C@@]21C [MPA, medroxyprogesterone acetate]		0.42 mg/kg, s.c. and 0.39 mg/kg, s.c. (2×)	
